Each compound was assayed against T1, CHK1 kinase (Homo sapiens, UniProt O14757) (assay: Flashplate method (CHK1), measurement of the CHK1 kinase activity). Details: class symbols; 'Affinity to receptors'.
T1 construct: glutathione S-transferase (GST); made in house; host or cells: Sf21 insect cells (S. frugiperda), baculovirus
T1 sequence (O14757 1-476): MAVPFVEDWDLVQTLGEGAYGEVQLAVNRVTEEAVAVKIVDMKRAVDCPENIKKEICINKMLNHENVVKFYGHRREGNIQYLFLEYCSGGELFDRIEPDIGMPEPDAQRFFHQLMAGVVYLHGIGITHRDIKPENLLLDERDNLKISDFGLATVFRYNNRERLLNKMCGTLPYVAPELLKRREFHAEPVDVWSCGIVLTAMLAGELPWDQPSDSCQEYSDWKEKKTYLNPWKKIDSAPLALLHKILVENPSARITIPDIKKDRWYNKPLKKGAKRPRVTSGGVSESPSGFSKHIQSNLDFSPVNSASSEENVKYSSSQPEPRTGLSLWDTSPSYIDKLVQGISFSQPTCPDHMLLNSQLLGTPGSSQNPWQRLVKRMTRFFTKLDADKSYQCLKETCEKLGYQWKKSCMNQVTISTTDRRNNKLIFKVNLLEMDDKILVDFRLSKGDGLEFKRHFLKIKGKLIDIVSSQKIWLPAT
Assay type: biochemical
Procedure, shortened: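 GST-tagged CHK1 expressed in Sf21 insect cells, incubated at 30 °C with biotinylated CHKtide (0.15 μg per well) and γ33P-ATP in pH 7.5 buffer (EGTA, Mg acetate, mercaptoethanol, 0.1% BSA). Stopped with EDTA, captured on streptavidin Flashplates and counted by scintillation. IC50 set against uninhibited reaction and 0.1 μM staurosporine as zero.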
For `COc1cccc([C@@H](C)Nc2c(Nc3ccc4[nH]cnc4c3)c(=O)c2=O)c1` [Compound A2, 3-(1H-benzimidazol-5-ylamino)-4-[(R)-1-(3-methoxyphenyl)ethylamino]cyclobut-3-ene-1,2-dione], the IC50 was < 1000 nM.
`COc1cccc([C@H](C)Nc2c(Nc3ccc4[nH]cnc4c3)c(=O)c2=O)c1` [Compound A83, 3-(1H-benzimidazol-5-ylamino)-4-[(S)-1-(3-methoxyphenyl)ethylamino]cyclobut-3-ene-1,2-dione] was tested, and the IC50 was > 1000 nM.
`O=c1c(NCc2ccc(Cl)c(Cl)c2)c(Nc2ccc3[nH]cnc3c2)c1=O` [Compound A162, 3-(1H-benzimidazol-5-ylamino)-4-(3,4-dichlorobenzylamino)cyclobut-3-ene-1,2-dione] was tested, and the IC50 was > 1000 nM.
With “3-[3-(2-methoxyethyl)-3H-benzimidazol-5-ylamino]-4-[(R)-1-(3-methoxyphenyl)ethyl-amino]cyclobut-3-ene-1,2-dione [Compound A67]” the IC50 was > 1000 nM.
`O=c1c(NCCc2ccc(O)cc2)c(Nc2ccc3[nH]cnc3c2)c1=O` [Compound A140, 3-(1H-benzimidazol-5-ylamino)-4-[2-(4-hydroxyphenyl)ethylamino]cyclobut-3-ene-1,2-dione] was tested, and the IC50 was > 1000 nM.
In the case of `O=c1c(NCc2cccc(F)c2)c(Nc2ccc3[nH]cnc3c2)c1=O` [Compound A31, 3-(1H-benzimidazol-5-ylamino)-4-(3-fluoro-benzylamino)cyclobut-3-ene-1,2-dione], the IC50 is reported as > 1000 nM.
With `O=c1c(NCc2cc(F)c(F)c(O)c2F)c(Nc2ccc3[nH]cnc3c2)c1=O` [Compound A78, 3-(1H-benzimidazol-5-ylamino)-4-(2,4,5-trifluoro-3-hydroxybenzylamino)cyclobut-3-ene-1,2-dione] the IC50 was > 1000 nM.
For `CCn1c2ccccc2c2cc(Nc3c(NCc4cccc(O)c4)c(=O)c3=O)ccc21` [Compound A47, 3-(9-ethyl-9H-carbazol-3-ylamino)-4-(3-hydroxybenzylamino)cyclobut-3-ene-1,2-dione], the IC50 was > 1000 nM.
In the case of `NC(=O)c1cccc(CNc2c(Nc3ccc4[nH]cnc4c3)c(=O)c2=O)c1` [Compound A95, 3-(1H-benzimidazol-5-ylamino)-4-(3-amino-carbonylbenzylamino)cyclobut-3-ene-1,2-dione], the IC50 is reported as > 1000 nM.
In the case of `O=c1c(Nc2ccc3[nH]cnc3c2)c(N2CCc3ccc(O)cc3C2)c1=O` [Compound A82, 3-(1H-benzimidazol-5-ylamino)-4-(7-hydroxy-3,4-dihydro-1H-isoquinolin-2-yl)cyclobut-3-ene-1,2-dione], the IC50 is reported as > 1000 nM.
With `O=c1c(NCc2cc(Br)ccc2O)c(Nc2ccc3[nH]cnc3c2)c1=O` [Compound A36, 3-(1H-benzimidazol-5-ylamino)-4-(3-bromo-6-hydroxybenzylamino)cyclobut-3-ene-1,2-dione] the IC50 was > 1000 nM.
In the case of `Cn1cnc2cc(Nc3c(NCc4cccc(O)c4)c(=O)c3=O)ccc21` [Compound A50, 3-(1-methyl-1H-benzimidazol-5-ylamino)-4-(3-hydroxybenzylamino)cyclobut-3-ene-1,2-dione], the IC50 is reported as > 1000 nM.
`CC[C@@H](Nc1c(Nc2ccc3[nH]cnc3c2)c(=O)c1=O)c1cccc(OC)c1` [Compound A114, 3-(1H-benzimidazol-5-ylamino)-4-[(R)-1-(3-methoxyphenyl)propylamino]cyclobut-3-ene-1,2-dione] was tested, and the IC50 was > 1000 nM.
In the case of `Cc1nc2cc(Nc3c(NCc4cccc(O)c4)c(=O)c3=O)ccc2s1` [Compound A98, 3-(3-hydroxybenzylamino)-4-(2-methylbenzo-thiazol-5-ylamino)cyclobut-3-ene-1,2-dione], the IC50 is reported as > 1000 nM.
In the case of `CCOC(=O)c1cc2cc(Nc3c(NCc4cccc(O)c4)c(=O)c3=O)ccc2[nH]1` [Compound A81, 3-(2-ethoxycarbonyl-1H-indol-5-ylamino)-4-(3-hydroxybenzylamino)cyclobut-3-ene-1,2-dione], the IC50 is reported as > 1000 nM.
With `O=c1cnc2ccc(CNc3c(Nc4ccc5[nH]cnc5c4)c(=O)c3=O)cc2[nH]1` [Compound A163, 3-(1H-benzimidazol-5-ylamino)-4-[(3-oxo-3,4-dihydroquinoxalin-6-ylmethyl)amino]cyclobut-3-ene-1,2-dione] the IC50 was > 1000 nM.
In the case of `O=c1c(NCCc2cccc(O)c2)c(Nc2ccc3[nH]cnc3c2)c1=O` [Compound A142, 3-(1H-benzimidazol-5-ylamino)-4-[2-(3-hydroxyphenyl)ethylamino]cyclobut-3-ene-1,2-dione], the IC50 is reported as > 1000 nM.
With `O=c1[nH]c2cc(CNc3c(Nc4ccc5[nH]cnc5c4)c(=O)c3=O)ccc2o1` [Compound A160, 3-(1H-benzimidazol-5-ylamino)-4-[(2-oxo-2,3-dihydrobenzoxazol-5-ylmethyl)amino]-cyclobut-3-ene-1,2-dione] the IC50 was > 1000 nM.
In the case of `CNS(=O)(=O)c1ccccc1CNc1c(Nc2ccc3[nH]cnc3c2)c(=O)c1=O` [Compound A154, 3-(1H-benzimidazol-5-ylamino)-4-[2-(N-methylaminosulfonyl)benzylamino]cyclobut-3-ene-1,2-dione], the IC50 is reported as > 1000 nM.
`O=c1c(NCc2cccc(O)c2)c(Nc2ccc3[nH]ccc3c2)c1=O` [Compound A29, 3-(1H-indol-5-ylamino)-4-(3-hydroxybenzyl-amino)cyclobut-3-ene-1,2-dione] was tested, and the IC50 was > 1000 nM.
With `O=c1c(NCc2ccc3[nH]c(C(F)(F)F)nc3c2)c(Nc2ccc3[nH]cnc3c2)c1=O` [Compound A90, 3-(1H-benzimidazol-5-ylamino)-4-[(2-trifluoromethyl-1H-benzimidazol-5-ylmethyl)-amino]cyclobut-3-ene-1,2-dione] the IC50 was > 1000 nM.
